Entries after “also recorded” stand apart in the source; their conditions may differ. Like-named read-outs stand apart in the source and are kept apart here. Values belong to the compound of their own block, whether it stands above or below them.
Experiments:
[1] = system: bone resorption induced by parathyroid hormone (PTH); conditions: cited from earlier work; for activity compared with ipriflavone: under identical conditions, anti-osteoporosis activity
solubility in methanol = assay type: physicochemical
Text: The process of the present invention overcomes disadvantages of the prior art since: • 1. Aerial parts such as leaves of Boerhavia diffusa collected from specific locations identified herein are used (containing the maximum amount of the compound and as established by analyzing the samples of the plant collected during three years). • 2. The process prescribes hot continuous extraction (Soxhlet extraction) ensuring complete extraction of compound of formula 1. […] The compound is purified by direct crystallization from the residue obtained after triturition described in 3, making it the simplest, quickest, highly economically viable, scale up compatible for commercial utilization and novel method for the isolation of compound of formula 1 with an yield upto 0.4% which is more than 300 times the yield reported by Li et al.

[2] = monkeys; cited from earlier work
Ca^2+ channel = conditions: frog heart single cells; cited from earlier work
[3] = rats; cited from earlier work
[4] = cats; cited from earlier work

solubility in methanol (solubility in methanol): not highly soluble
Compound: COc1cc2oc(-c3ccc(O)cc3)c(OC3OC(CO)C(O)C(O)C3O)c(=O)c2c(O)c1OC [eupalitin 3-O-β-D-galactopyranoside, 5,4′-dihydroxy 6,7-dimethoxy-flavonol-3-O-β-D-galactoside]
inhibition of bone resorption induced by parathyroid hormone (PTH) ([1]; tissue culture): significant (p<0.001) inhibition | activity compared with ipriflavone [1]: greater anti-osteoporosis activity than ipriflavone; also recorded: more than that exhibited by lpriflavone | activity compared with ipriflavone ([1]; listed as 3-O-β-D-galactopyranoside): greater anti-osteoporosis activity than ipriflavone

Compound: Punarnavoside
antifibrinolytic activity [2]: had antifibrinolytic activity

Compound: COc1cc([C@H]2OC[C@H]3[C@@H]2CO[C@@H]3c2cc(OC)c(O[C@@H]3O[C@H](CO)[C@@H](O)[C@H](O)[C@H]3O)c(OC)c2)cc(OC)c1O[C@@H]1O[C@H](CO)[C@@H](O)[C@H](O)[C@H]1O [Liriodendrin, liriodendrin]
Ca2+ channel block (Ca^2+ channel): blocked

Compound: O=c1[nH]cnc2c1ncn2C1O[C@@H](CO)[C@H](O)[C@H]1O (stereo partly drawn) [hypoxanthine 9-L-arabinoside]
cardiovascular effects [3]: depressor and negative chronotropic effects | cardiovascular effects [4]: depressor and negative chronotropic effects
